{"source": "patent US4997816A", "about": "“Induction of fertile ovulation in anoestruns mares” (The University of Melbourne, priority 1985, dated 1991)", "assay_type_in_all_cases": "in vivo, mare", "key": {"[1]": {"test_system": "Standardbred and Standardbred-type mares in transitional anoestrus", "description": "Delivery of GnRH was achieved via osmotic minipumps (OMP; Alza Corp., Palo Alto, CA:). These pumps are constructed of a rigid, semi-permeable membrane, inside which is suspended a water-proof bag which is filled with the substance to be infused. The neck of the bag is open to the atmosphere. Between the bag and the membrane a special osmotic solution is held. This solution causes an influx of water through the semi-permeable membrane when the OMP is placed in the body of animals. The influx of water collapses the bag at a fixed rate and the substance contained in the bag is expelled from the OMP at a steady rate. […] Seventeen Standardbred and Standardbred-type mares 3 to 9 years of age were used in the experiment, which commenced on Oct. 2, 1985, when the mares were in transitional anoestrus. The mares were divided into 2 groups. One group (n=g) was treated with an infusion of GnRH at a rate of 100 ng/kg/h delivered by subcutaneously implanted OMP for 28 days. The mares were run in paddocks during the experiment and brought into yards every 2 or 3 days, during which time oestrus detection was carried out. […] Blood samples were collected 3 times per week for determination of plasma LH and progesterone concentrations. Ultrasound echography was used to diagnose pregnancy 14 days after ovulation, and every 2 or 3 days thereafter until Day 45 of pregnancy, when the experiment was terminated."}, "[2]": {"test_system": "Standardbred mares in deep anoestrus", "conditions": "for Proportion mares ovulating: deep anoestrus; for Proportion mares ovulating / Percentage mares ovulating: 1984", "description": "Delivery of GnRH was achieved via osmotic minipumps (OMP; Alza Corp., Palo Alto, CA:). These pumps are constructed of a rigid, semi-permeable membrane, inside which is suspended a water-proof bag which is filled with the substance to be infused. The neck of the bag is open to the atmosphere. Between the bag and the membrane a special osmotic solution is held. This solution causes an influx of water through the semi-permeable membrane when the OMP is placed in the body of animals. The influx of water collapses the bag at a fixed rate and the substance contained in the bag is expelled from the OMP at a steady rate. […] Fourteen Standardbred mares in deep anoestrus were divided into 3 groups. Group C (controls; n=5) received no treatment while Group 50 (n=5) and Group 100 (n=4) were given infusions of GnRH at rates of 50 ng/kg/h and 100 ng/kg/h respectively. The GnRH was administered via subcutaneously implanted osmotic minipumps (OMP) for 28 days. Blood samples were collected daily and ovarian palpation and oestrus detection was carried out 3 times per week or daily if a follicle >3.5 cm was detected."}, "mares in deep anoestrus": {"test_system": "mares in deep anoestrus", "assay": "Combined results, deep anoestrus (1984 and 1985)", "conditions": "1984 and 1985 combined", "protocol": "Fourteen Standardbred mares in deep anoestrus were divided into 3 groups. Group C (controls; n=5) received no treatment while Group 50 (n=5) and Group 100 (n=4) were given infusions of GnRH at rates of 50 ng/kg/h and 100 ng/kg/h respectively. The GnRH was administered via subcutaneously implanted osmotic minipumps (OMP) for 28 days. Blood samples were collected daily and ovarian palpation and oestrus detection was carried out 3 times per week or daily if a follicle >3.5 cm was detected. The mares were divided into 3 groups. Group C (n=5) were untreated and acted as a control group, while Group 50 (n=5) and Group 100 (n=6) received infusions of GnRH at rates of 50 ng/kg/h and 100 ng/kg/h, respectively. The GnRH was delivered via subcutaneously implanted OMP for 28 days, starting on July 2, 1985. Ovarian palpations and oestrus detection was carried out 3 times per week or daily when an ovarian follice of >3 cm diameter was detected."}, "[3]": {"test_system": "maiden Standardbred mares in deep winter anoestrus", "assay": "Example III: 28-day subcutaneous GnRH infusion by osmotic minipump, induction of ovulation (1985)", "conditions": "for Proportion mares ovulating: deep anoestrus; for Proportion mares ovulating / Percentage mares ovulating: 1985", "description": "Delivery of GnRH was achieved via osmotic minipumps (OMP; Alza Corp., Palo Alto, CA:). These pumps are constructed of a rigid, semi-permeable membrane, inside which is suspended a water-proof bag which is filled with the substance to be infused. The neck of the bag is open to the atmosphere. Between the bag and the membrane a special osmotic solution is held. This solution causes an influx of water through the semi-permeable membrane when the OMP is placed in the body of animals. The influx of water collapses the bag at a fixed rate and the substance contained in the bag is expelled from the OMP at a steady rate. […] Sixteen maiden Standardbred mares, 3 to 6 years of age were used in the experiment which was conducted during deep winter anoestrus in 1985. The mares were in good to excellent condition and were run in 2 outside paddocks during the period of the experiment. The mares were divided into 3 groups. Group C (n=5) were untreated and acted as a control group, while Group 50 (n=5) and Group 100 (n=6) received infusions of GnRH at rates of 50 ng/kg/h and 100 ng/kg/h, respectively. The GnRH was delivered via subcutaneously implanted OMP for 28 days, starting on July 2, 1985. Ovarian palpations and oestrus detection was carried out 3 times per week or daily when an ovarian follice of >3 cm diameter was detected."}, "[4]": {"test_system": "mares in transitional anoestrus", "assay": "Combined results, transitional anoestrus (1984 and 1985)", "conditions": "100 ng/kg/h", "protocol": "The experiment commenced on Sept. 10, 1984. Mares were randomised in pairs to a Treated group or a Control group until all the mares had been assigned to groups by Sept. 21. The mares were paired on the basis of each mare having approximately equal ovarian follicular activity. Each treated mare was weighted just prior to the experiment. The dose of GnRH (100 ng/kg/hr) to be administered over 28 days was calculated and dissolved in sterile, physiological (0.9%) saline. The solution was loaded into an OMP and placed in a beaker of saline at room temperature overnight to allow for the \"start up time\" of the OMP. The mares were divided into 2 groups. One group (n=g) was treated with an infusion of GnRH at a rate of 100 ng/kg/h delivered by subcutaneously implanted OMP for 28 days. The mares were run in paddocks during the experiment and brought into yards every 2 or 3 days, during which time oestrus detection was carried out. […] Blood samples were collected 3 times per week for determination of plasma LH and progesterone concentrations. Ultrasound echography was used to diagnose pregnancy 14 days after ovulation, and every 2 or 3 days thereafter until Day 45 of pregnancy, when the experiment was terminated."}, "[5]": {"test_system": "Standardbred mares in transitional or \"shallow\" anoestrus", "description": "Delivery of GnRH was achieved via osmotic minipumps (OMP; Alza Corp., Palo Alto, CA:). These pumps are constructed of a rigid, semi-permeable membrane, inside which is suspended a water-proof bag which is filled with the substance to be infused. The neck of the bag is open to the atmosphere. Between the bag and the membrane a special osmotic solution is held. This solution causes an influx of water through the semi-permeable membrane when the OMP is placed in the body of animals. The influx of water collapses the bag at a fixed rate and the substance contained in the bag is expelled from the OMP at a steady rate. […] Ten young Standardbred mares of 3 to 5 years of age as judged by wear of the teeth were used in the experiment. During the experiment, the mares were fed hay twice daily and kept in a paddock. The mares were vaccinated against Tetanus and Strangles and were given regular anthelmintic and lice treatments. Their body condition during the experiment was good to very good. Ovarian palpations were carried out and blood was collected from the mares every 2 or 3 days for 4 weeks prior to commencement of the experiment. […] The experiment commenced on Sept. 10, 1984. Mares were randomised in pairs to a Treated group or a Control group until all the mares had been assigned to groups by Sept. 21. The mares were paired on the basis of each mare having approximately equal ovarian follicular activity. Each treated mare was weighted just prior to the experiment. The dose of GnRH (100 ng/kg/hr) to be administered over 28 days was calculated and dissolved in sterile, physiological (0.9%) saline. The solution was loaded into an OMP and placed in a beaker of saline at room temperature overnight to allow for the \"start up time\" of the OMP. The OMP were inserted subcutaneously in the side of the necks of the treated mares, under local infiltration anaesthesia. The pumps were retained using 1 or 2 mattress sutures in the skin. After insertion of the OMP, the treated and control mares were run as a group in a single paddock. Every 2 or 3 days the mares were brought into the yards. Ovarian palpations were carried out and blood samples were collected on these days. In addition, the mares were teased with a vigorous stallion, to detect oestrus. […] Blood samples were assayed for lutsinizing hormone (LH) and progesterone concentrations. Ultrasound echography was used to diagnose pregnancy 14 days after ovulation. Subsequent ultrasound examinations were made every 2 or 3 days until Day 45 of pregnancy, when the experiment was terminated."}, "[6]": {"conditions": "Group 50, 50 ng/kg/h s.c. OMP 28 days"}, "[7]": {"conditions": "Group 100, 100 ng/kg/h s.c. OMP 28 days"}}, "note": "“And” between values parts separate entries of the source, which are not always exact repeats. Identical values can stand only once. Like-named read-outs stand apart in the source and are kept apart here.", "data": [{"smiles": "CC(C)C[C@H](NC(=O)CNC(=O)[C@H](Cc1ccc(O)cc1)NC(=O)[C@H](CO)NC(=O)[C@H](Cc1c[nH]c2ccccc12)NC(=O)[C@H](Cc1c[nH]cn1)NC(=O)[C@@H]1CCC(=O)N1)C(=O)N[C@@H](CCCNC(=N)N)C(=O)N1CCC[C@H]1C(=O)NCC(N)=O", "note": "[GnRH, pGlu-His-Trp-Ser-Tyr-Gly-Leu-Arg-Pro-Gly-NH2]", "values": [{"measurement": "Treated mares that ovulated during the period the OMP were functional", "setting": "[1]; 100 ng/kg/h s.c. OMP 28 days, transitional anoestrus, 1985", "result": "Eight of 9"}, {"measurement": "Average time (day) of ovulation from commencement of the experiment (x ± s.e.m.)", "setting": "[1]; 100 ng/kg/h, 1985, n=9, P<0.05 vs controls", "result": "18.6 ± 4.3 days and 18.8 ± 4.3 days"}, {"measurement": "Mares that failed to conceive", "setting": "[1]; 100 ng/kg/h, 1985, treated group", "result": "One"}, {"measurement": "Average day of conception from commencement of the experiment (x ± s.e.m.)", "setting": "[1]; 100 ng/kg/h, 1985, P<0.05 vs controls, one mare failed to conceive", "result": "24.4 ± 8.1", "unit": "days"}, {"measurement": "Average time from OMP insertion to ovulation", "setting": "[2]; Group 50, 50 ng/kg/h", "result": 18.5, "unit": "days"}, {"measurement": "Proportion mares ovulating", "setting": "[2]; [6]", "result": "2 of 5 and 2/5"}, {"measurement": "Percentage mares ovulating", "setting": "[2]; Group 50, 50 ng/kg/h", "result": 40, "unit": "%"}, {"measurement": "Average time from OMP insertion to ovulation", "setting": "[2]; Group 100, 100 ng/kg/h", "result": 17.3, "unit": "days"}, {"measurement": "Proportion mares ovulating", "setting": "[2]; [7]", "result": "3 of 4 and 3/4"}, {"measurement": "Percentage mares ovulating", "setting": "[2]; Group 100, 100 ng/kg/h", "result": 75, "unit": "%"}, {"measurement": "Mean LH pulse frequency", "setting": "[2]; Group 100 compared to controls, Day 21", "result": "significantly (<0.05) higher"}, {"measurement": "LH pulse amplitude", "setting": "[2]; between the 3 groups, any of the days studied", "result": "no statistical difference"}, {"measurement": "LH pulse frequency", "setting": "[2]; between the groups, Day 28", "result": "no difference"}, {"measurement": "Mean daily plasma LH concentrations", "setting": "[2]; both treated groups (50 and 100 ng/kg/h) compared to control mares", "result": "higher"}, {"measurement": "LH pulse frequency", "setting": "[2]; both treated groups compared to controls, within 7 days of insertion of OMP", "result": "significantly (p<0.05) higher"}, {"measurement": "Percentage mares ovulating", "setting": "mares in deep anoestrus; Group 50, 50 ng/kg/h", "result": 30, "unit": "%"}, {"measurement": "Proportion mares ovulating", "setting": "mares in deep anoestrus; Group 50, 50 ng/kg/h", "result": "3/10"}, {"measurement": "Percentage mares ovulating", "setting": "mares in deep anoestrus; Group 100, 100 ng/kg/h", "result": 70, "unit": "%"}, {"measurement": "Proportion mares ovulating", "setting": "mares in deep anoestrus; Group 100, 100 ng/kg/h, P < .01 vs controls", "result": "7/10"}, {"measurement": "Average time from OMP insertion to ovulation", "setting": "[3]; Group 50, 50 ng/kg/h", "result": 24, "unit": "days"}, {"measurement": "Proportion mares ovulating", "setting": "[3]; [6]", "result": "1 of 5 and 1/5"}, {"measurement": "Percentage mares ovulating", "setting": "[3]; Group 50, 50 ng/kg/h", "result": 20, "unit": "%"}, {"measurement": "Average time from OMP insertion to ovulation", "setting": "[3]; Group 100, 100 ng/kg/h", "result": 21.8, "unit": "days"}, {"measurement": "Proportion mares ovulating", "setting": "[3]; [7]", "result": "4 of 6 and 4/6"}, {"measurement": "Percentage mares ovulating", "setting": "[3]; Group 100, 100 ng/kg/h", "result": 67, "unit": "%"}, {"measurement": "Day of ovulation (x ± s.e.m.)", "setting": "[4]; 1984 and 1985 combined, n=14, P < .001 compared to controls", "result": "18.6 ± 3.0"}, {"measurement": "Day of conception (x ± s.e.m.)", "setting": "[4]; 1984 and 1985 combined, n=14, P < .05 compared to controls", "result": "25.2 ± 6.0"}, {"measurement": "Average day of ovulation earlier than the controls", "setting": "[4]; data for the 2 years combined", "result": "approximately 23 days"}, {"measurement": "Day of conception earlier than the controls", "setting": "[4]; data for the 2 years combined", "result": 24, "unit": "days"}, {"measurement": "Treated mares that ovulated during GnRH infusion", "setting": "[5]; 100 ng/kg/hr s.c. OMP 28 days, transitional anoestrus, 1984", "result": "Four of the 5"}, {"measurement": "Treated mares that conceived in association with the first ovulation after insertion of the OMP", "setting": "[5]; 100 ng/kg/hr, 1984", "result": "Four of the 5"}, {"measurement": "Day of conception (x ± s.e.m.)", "setting": "[5]; 100 ng/kg/hr, 1984, n=5, after OMP insertion, p<0.01 vs controls", "result": "26.6 ± 9.7 days and 26.6 days"}, {"measurement": "Time (day) of ovulation from commencement of the experiment (x ± s.e.m.)", "setting": "[5]; 100 ng/kg/hr, 1984, n=5, p<0.01 vs controls", "result": "18.6 ± 4.1 days and 18.6 days"}]}]}
